US12310975B2, “Modulators of BCL6 proteolysis and associated methods of use” (Arvinas Operations, Inc., priority 2019, dated 2025)

Each compound was assayed against BCL6 (Homo sapiens (Human), UniProt P41182) (assay: Immunofluorescence high content imaging of BCL6 degradation in T47D cells). Details: not given.
Assay type: cell-based
Procedure: Immunofluorescence Protocol for High Cotent Imaging of BCL6
T47D cells were seeded in 100 μl volume of RPMI1640-10% FBS in a 96-well black/clear bottom plates for adherent lines (Corning #3904).
Day 1. T47D breast cancer epithelial cells were seeded at a density so that confluence is ˜70-90% at endpoint. Cells were seeded at 7K/0.1 ml/well the morning prior to the addition of exemplary bifunctional degradation compounds.
Day 2. Prepare an 11 point 3-fold serial dilution of exemplary bifunctional compound in DMSO and aliquot an appropriate volume to cell growth media to generate a 2× final concentration of exemplary bifunctional compound. Add an equal volume (0.1 ml) of 2× exemplary bifunctional compound/media mix to previously plated cells, for a final top concentration in aqueous cell growth media of 0.1 or 1 μM. Incubate for 3 days at 37° C., 5% CO2.
Day 5 Immunofluorescence. Discard cell media. Wash wells with 200 μl of room temperature phosphate-buffered saline (PBS). Prepared 4% paraformaldehyde (PFA) from 16% PFA (Electron Microscopy Sciences #15710) using 1×PBS. Fifty μl of 4% PF was added to each well and incubate for 15 minutes at room temperature to fix the cells. The PFA was aspirated and the cells washed twice with PBS (200 μl)).
Prepared 0.1% Triton X-100 in PBS using 10% triton X-100 stock. The cells were permeabilized by adding 100 ul of the 0.1% Triton X-100 in PBS to each well to permeabilize cells and incubating at room temperature for 15 minutes. Cells were washed twice with PBS.
Prepared 3% BSA/PBS (from Thermofisher #37515 Blocker BSA in TBS, 10%), and 100 ul was added to each well. The cells were incubated for at least 1 hour at room temperature.
Prepared 1% BSA/PBS using Blocker BSA/PBS, and the 3% BSA/PBS removed from the wells.
For no primary antibody controls, 50 μl 1% BSA/PBS was added.
Primary antibody (BCL6 Rb Ab, CST-14895, Cell Signaling) was diluted 1:300 in 1% BSA/PBS using Blocker BSA/PBS.
Fifty μl of primary antibody added to all remaining wells (i.e., all wells other than the primary antibody controls) and the cells were incubated overnight at 4° C. with slow orbital movement.
Day 6. Contents of the wells was removed and the cells washed four times with 200 ul PBS. 1% BSA/PBS was prepared using Blocker BSA in PBS.
Diluted secondary antibody goat anti-Rb IgG Alexa-488 1:1000, and cell mask-Alexa-647 1:3000 in 1% BSA/PBS in the same mix. Add 50 μl to each well and incubate at room temperature for 1 hour in the dark.
Cells were washed three times with 200 ul PBS, and then incubated for 10 minutes with 100 ul Hoechst dye at 1 μg/mL (20 mM stock) to stain cell nuclei. Wells were then washed with 200 μl PBS, and 100 ul of PBS was added to each well and the plate covered plate with a plastic opaque cover. Plates were stored at 4° C. and covered in aluminum foil until imaged.
Plates were equilibrated to room temperature prior to reading. The bottom of the plate was wiped with 70% isopropanol immediately prior to imaging.
10×, 4 fields/well, include Top hat smoothing in the analysis protocol.
Compound `CNC(=O)COc1cc2cc(Nc3nc(N4CCN(C(C)(C)C5CCN(c6ccc7c(c6)C(=O)N(C6CCC(=O)NC6=O)C7=O)CC5)CC4)ncc3Cl)ccc2n(C(C)C)c1=O` (stereo not drawn) [compound 299, 2-{[6-({5-chloro-2-[4-(2-{1-[2-(2,6-dioxopiperidin-3-yl)-1,3-dioxo-2,3-dihydro-1H-isoindol-5-yl]piperidin-4-yl}propan-2-yl)piperazin-1-yl]pyrimidin-4-yl}amino)-2-oxo-1-(propan-2-yl)-1,2-dihydroquinolin-3-yl]oxy}-N-methylacetamide] has an IC50 of 10 to 50 nM.
With `CC(=O)COc1cc2cc(Nc3nc(N4CCC(N5CCCC5COc5ccc6c(c5)C(=O)N(C5CCC(=O)NC5=O)C6=O)CC4)ncc3Cl)ccc2n(C)c1=O` (stereo not drawn) [compound 182, 5-((1-(1-(5-chloro-4-((1-methyl-2-oxo-3-(2-oxopropoxy)-1,2-dihydroquinolin-6-yl)amino)pyrimidin-2-yl)piperidin-4-yl)pyrrolidin-2-yl)methoxy)-2-(2,6-dioxopiperidin-3-yl)isoindoline-1,3-dione] the IC50 was no less than 100 nM.

Same assay, conditions: T47D
`CNC(=O)COc1cc2cc(Nc3nc(N4CCN(C(C)(C)C5CCN(c6ccc7c(c6)C(=O)N(C6CCC(=O)NC6=O)C7=O)CC5)CC4)ncc3Cl)ccc2n(C(C)C)c1=O` (stereo not drawn) [compound 299, 2-{[6-({5-chloro-2-[4-(2-{1-[2-(2,6-dioxopiperidin-3-yl)-1,3-dioxo-2,3-dihydro-1H-isoindol-5-yl]piperidin-4-yl}propan-2-yl)piperazin-1-yl]pyrimidin-4-yl}amino)-2-oxo-1-(propan-2-yl)-1,2-dihydroquinolin-3-yl]oxy}-N-methylacetamide] showed a Dmax of no less than 70%.
With `CC(=O)COc1cc2cc(Nc3nc(N4CCC(N5CCCC5COc5ccc6c(c5)C(=O)N(C5CCC(=O)NC5=O)C6=O)CC4)ncc3Cl)ccc2n(C)c1=O` (stereo not drawn) [compound 182, 5-((1-(1-(5-chloro-4-((1-methyl-2-oxo-3-(2-oxopropoxy)-1,2-dihydroquinolin-6-yl)amino)pyrimidin-2-yl)piperidin-4-yl)pyrrolidin-2-yl)methoxy)-2-(2,6-dioxopiperidin-3-yl)isoindoline-1,3-dione] the Dmax was less than 50%.

Same assay, conditions: T47D cells
`CNC(=O)COc1cc2cc(Nc3nc(N4CCC[C@H](COc5cccc6c5C(=O)N(C5CCC(=O)NC5=O)C6=O)C4)ncc3Cl)ccc2n(C2CCCCC2)c1=O` (stereo partly drawn) [compound 343, 2-{[6-({5-chloro-2-[(3S)-3-({[2-(2,6-dioxopiperidin-3-yl)-1,3-dioxo-2,3-dihydro-1H-isoindol-4-yl]oxy}methyl)piperidin-1-yl]pyrimidin-4-yl}amino)-1-cyclohexyl-2-oxo-1,2-dihydroquinolin-3-yl]oxy}-N-methylacetamide] showed a Dmax of 50 to 70% and an IC50 of less than 10 nM.
Compound `CNC(=O)COc1cc2cc(Nc3nc(N4CC5(CCN(CC6CCN(c7cccc8c7C(=O)N(C7CCC(=O)NC7=O)C8=O)CC6)CC5)C4)ncc3Cl)ccc2n(C(C)C)c1=O` (stereo not drawn) [compound 426, 2-{[6-({5-chloro-2-[7-({1-[2-(2,6-dioxopiperidin-3-yl)-1,3-dioxo-2,3-dihydro-1H-isoindol-4-yl]piperidin-4-yl}methyl)-2,7-diazaspiro[3.5]nonan-2-yl]pyrimidin-4-yl}amino)-2-oxo-1-(propan-2-yl)-1,2-dihydroquinolin-3-yl]oxy}-N-methylacetamide] has a Dmax of no less than 70%.
With `CNC(=O)COc1cc2cc(Nc3nc(N4CCN(CC5(F)CCN(c6cccc7c6C(=O)N(C6CCC(=O)NC6=O)C7=O)CC5)CC4)ncc3Cl)ccc2n(C)c1=O` (stereo not drawn) [compound 341, 2-{[6-({5-chloro-2-[4-({1-[2-(2,6-dioxopiperidin-3-yl)-1,3-dioxo-2,3-dihydro-1H-isoindol-4-yl]-4-fluoropiperidin-4-yl}methyl)piperazin-1-yl]pyrimidin-4-yl}amino)-1-methyl-2-oxo-1,2-dihydroquinolin-3-yl]oxy}-N-methylacetamide] the Dmax was no less than 70% and the IC50 was less than 10 nM.
Compound `CNC(=O)COc1cc2cc(Nc3nc(N4CCC(OC5CCC6(CC5)CN(c5ccc7c(c5)C(=O)N(C5CCC(=O)NC5=O)C7=O)C6)CC4)ncc3Cl)ccc2n(C(C)C)c1=O` (stereo not drawn) [compound 421, 2-{[6-({5-chloro-2-[4-({2-[2-(2,6-dioxopiperidin-3-yl)-1,3-dioxo-2,3-dihydro-1H-isoindol-5-yl]-2-azaspiro[3.5]nonan-7-yl}oxy)piperidin-1-yl]pyrimidin-4-yl}amino)-2-oxo-1-(propan-2-yl)-1,2-dihydroquinolin-3-yl]oxy}-N-methylacetamide] has a Dmax of no less than 70% and an IC50 of less than 10 nM.
`CNC(=O)COc1cc2cc(Nc3nc(N4CCN(CC5CCCN5c5ccc6c(c5)C(=O)N(C5CCC(=O)NC5=O)C6=O)CC4)ncc3Cl)ccc2n(C(C)C)c1=O` (stereo not drawn) [compound 380, 2-{[6-({5-chloro-2-[4-({1-[2-(2,6-dioxopiperidin-3-yl)-1,3-dioxo-2,3-dihydro-1H-isoindol-5-yl]pyrrolidin-2-yl}methyl)piperazin-1-yl]pyrimidin-4-yl}amino)-2-oxo-1-(propan-2-yl)-1,2-dihydroquinolin-3-yl]oxy}-N-methylacetamide] showed a Dmax of less than 50% and an IC50 of 10 to 50 nM.
`CNC(=O)COc1cc2cc(Nc3nc(N4CCC5(CC4)CN(CC4CCN(c6ccc7c(c6)C(=O)N(C6CCC(=O)NC6=O)C7=O)CC4)C5)ncc3Cl)ccc2n(C(C)C)c1=O` (stereo not drawn) [compound 384] gave a Dmax of no less than 70% and an IC50 of less than 10 nM.
For `CCCn1c(=O)c(OCC(=O)NC)cc2cc(Nc3nc(N4CCN(CC5CCN(c6ccc7c(c6)C(=O)N(C6CCC(=O)NC6=O)C7=O)CC5)CC4)ncc3Cl)ccc21` (stereo not drawn) [compound 314, 2-{[6-({5-chloro-2-[4-({1-[2-(2,6-dioxopiperidin-3-yl)-1,3-dioxo-2,3-dihydro-1H-isoindol-5-yl]piperidin-4-yl}methyl)piperazin-1-yl]pyrimidin-4-yl}amino)-2-oxo-1-propyl-1,2-dihydroquinolin-3-yl]oxy}-N-methylacetamide], the Dmax was 50 to 70% and the IC50 was 10 to 50 nM.

Same assay, conditions: class symbols A-D, read-out: EC50 (nM)*
In the case of `CNC(=O)COc1cc2cc(Nc3nc(N4CCN(CCCN5CCN(c6ccc7c(c6)CN(C6CCC(=O)NC6=O)C7=O)CC5)CC4)ncc3Cl)ccc2n(C)c1=O` (stereo not drawn) [compound 103, 2-((6-((5-chloro-2-(4-(3-(4-(2-(2,6-dioxopiperidin-3-yl)-1-oxoisoindolin-5-yl)piperazin-1-yl)propyl)piperazin-1-yl)pyrimidin-4-yl)amino)-1-methyl-2-oxo-1,2-dihydroquinolin-3-yl)oxy)-N-methylacetamide], the DC50 was 10 to 50 nM.
Work on `CNC(=O)COc1cc2cc(Nc3nc(N4CCC(OCCOCCOCCOCCOCCOCC(=O)N[C@H](C(=O)N5C[C@H](O)C[C@H]5C(=O)NCc5ccc(-c6scnc6C)cc5)C(C)(C)C)CC4)ncc3Cl)ccc2n(C)c1=O` [compound 82, (2S,4R)-1-((S)-2-(tert-butyl)-20-((1-(5-chloro-4-((1-methyl-3-(2-(methylamino)-2-oxoethoxy)-2-oxo-1,2-dihydroquinolin-6-yl)amino)pyrimidin-2-yl)piperidin-4-yl)oxy)-4-oxo-6,9,12,15,18-pentaoxa-3-azaicosanoyl)-4-hydroxy-N-(4-(4-methylthiazol-5-yl)benzyl)pyrrolidine-2-carboxamide] yielded a DC50 of 50 to 100 nM.
Compound `CNC(=O)COc1cc2cc(Nc3nc(N4CCC(OCCOCCOCCOCCOc5ccc6c(c5)C(=O)N(C5CCC(=O)NC5=O)C6=O)CC4)ncc3Cl)ccc2n(C)c1=O` (stereo not drawn) [compound 60, 2-((6-((5-chloro-2-(4-(2-(2-(2-(2-((2-(2,6-dioxopiperidin-3-yl)-1,3-dioxoisoindolin-5-yl)oxy)ethoxy)ethoxy)ethoxy)ethoxy)piperidin-1-yl)pyrimidin-4-yl)amino)-1-methyl-2-oxo-1,2-dihydroquinolin-3-yl)oxy)-N-methylacetamide] has a DC50 greater than 100 nM.
Compound `CNC(=O)COc1cc2cc(Nc3nc(N4CCC(OCCOCCOCCOCCOCCOCCOCC(=O)N[C@H](C(=O)N5C[C@H](O)C[C@H]5C(=O)NCc5ccc(-c6scnc6C)cc5)C(C)(C)C)CC4)ncc3Cl)ccc2n(C)c1=O` [compound 83, (2S,4R)-1-((S)-2-(tert-butyl)-23-((1-(5-chloro-4-((1-methyl-3-(2-(methylamino)-2-oxoethoxy)-2-oxo-1,2-dihydroquinolin-6-yl)amino)pyrimidin-2-yl)piperidin-4-yl)oxy)-4-oxo-6,9,12,15,18,21-hexaoxa-3-azatricosanoyl)-4-hydroxy-N-(4-(4-methylthiazol-5-yl)benzyl)pyrrolidine-2-carboxamide] has a DC50 of 50 to 100 nM.
